Measured values from patent US11634425B2, “Pharmaceutical compounds” (priority 2019, dated 2023).
In brackets after ≈: the same amount, converted by molar mass. Like-named read-outs stand apart in the source and are kept apart here.

Legend:
Hep-G2 cells = test: Cell cytotoxicity (CC50); format: cell-based; conditions: mean of at least two experiments
Outline: (§1)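 Values are means of ≥2 independent runs, rounded to whole units, from 4-parameter variable-slope curve fits. Toxicity measured in Hep-G2 cells run alongside RSV plaque-reduction assays.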

RSV A2 = test: RSV plaque reduction assay; format: cell-based, respiratory syncytial virus (RSV); conditions: mean of at least two experiments
Outline: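 EC50 is the 50% reduction in immunostained plaque count versus virus-control wells, interpolated from variable-slope 4-parameter fits and averaged over at least two runs. Hep-G2 cells were infected with 100 PFU/well RSV A2 premixed with compound, with the inoculum removed after 2 h. Incubation continued at 37 °C for 2 days under a CMC overlay with compound.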

in vitro [1] = format: in vitro ADME; conditions: 1 μM compound, 0.5 mg/mL protein; for half-life at 1 μM: microsomes, pH 7.4, read-out: Liver Microsomal Stability t1/2
Outline: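 Pooled liver microsomes (0.5 mg/mL protein) in 0.1 M phosphate pH 7.4 with 1 μM compound and 1 mM NADPH at 37° C., sampled at 0–45 min; minus-NADPH control at 45 min. Acetonitrile quench, LC-MS/MS; t1/2 and CLint from ln peak-area ratio vs time slope.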

Cell cytotoxicity (CC50) = format: cell-based; conditions: human; mean of at least two experiments
Outline: as §1

in vitro [2] = format: in vitro ADME; conditions: hepatocytes, 3 μM compound, read-out: Liver Hepatocyte Stability t1/2
Description: Compounds were subjected to the following assays to investigate liver microsomal stability and hepatocyte stability.
Hepatocyte Incubation: Experimental Procedure
Cryopreserved pooled hepatocytes were purchased from a reputable commercial supplier and stored in liquid nitrogen prior to use. Williams E media supplemented with 2 mM L-glutamine and 25 mM HEPES and test compound (final substrate concentration 3 μM; final DMSO concentration 0.25%) are pre-incubated at 37° C. prior to the addition of a suspension of cryopreserved hepatocytes (final cell density 0.5×10^6 viable cells/mL in Williams E media supplemented with 2 mM L-glutamine and 25 mM HEPES) to initiate the reaction. The final incubation volume is 500 μL. Two control compounds were included with each species, alongside appropriate vehicle control. The reactions are stopped by transferring 50 μL of incubate to 100 μL acetonitrile containing internal standard at the appropriate time points. Samples were removed at 6 time points (0, 5, 15, 30, 45 and 60 min) over the course of a 60 min experiment. The termination plates are centrifuged at 2500 rpm at 4° C. for 30 min to precipitate the protein. Following protein precipitation, the sample supernatants were combined in cassettes of up to 4 compounds and analysed using generic LC-MS/MS conditions. From a plot of ln peak area ratio (compound peak area/internal standard peak area) against time, the gradient of the line is determined. Subsequently, half-life (t1/2) and intrinsic clearance (CLint) were calculated.

Thermodynamic solubility = format: physicochemical; conditions: aqueous buffer, thermodynamic from solid; typically phosphate buffered saline pH 7.4, ambient temperature overnight
Description: Test compound (2.5 mg of solid; n=1) was weighed in an amber glass vial and buffer (0.5 mL) was added (typically phosphate buffered saline pH 7.4). The solution was agitated at ambient temperature overnight using a vial roller system. The solution was then filtered (0.45 μm pore size; without pre-saturation). Duplicate aliquots (50 μL) are sampled from the filtrate and diluted with one volume of Milli-Q water and methanol (1:1 v/v) before analysis by HPLC-UV. A standard was prepared in DMSO at 10 mg/mL (n=1) which was then diluted 10-fold in Milli-Q water and methanol (1:1 v/v) to give a 1 mg/mL solution. The concentration of test compound in the filtrate was quantified relative to the concentration standard. Analysis was performed using a gradient HPLC-MS system.

in vivo = format: in vivo, rat (Sprague Dawley); conditions: male SD rat
Description: The pharmacokinetics of compounds were studied in vivo in rats at doses of 1 mg/kg (IV) and 10 mg/kg (PO).
Male rats [Sprague Dawley (SD)] surgically prepared with a jugular vein cannula were treated with experimental compounds via intravenous administration (IV; n=3; 1 mg/kg) or oral administration (PO; n=3; 10 mg/kg). Compounds were formulated as a solution in 40:60 dimethylacetamide:saline (IV administration) and a solution of 10% DMSO, 20% cremaphor in water (70%) (PO administration). […] Serial blood samples were collected via the cannula at 0.02, 0.08, 0.25, 0.5, 1, 2, 4, 6, 8 and 24 h post IV dosing of compound, and at 0.08, 0.25, 0.5, 1, 2, 4, 6, 8 and 24 h post oral dosing of compound, and plasma was prepared by centrifugation and stored immediately at −80° C. Samples were subsequently thawed, prepared for analysis by protein precipitation with acetonitrile, and analysed by tandem LCMS using electrospray ionisation using a matrix-matched calibration curve. PK parameters were calculated from the resulting data.

[3] = human respiratory syncytial virus, HepG2, Hep-G2 cells
[4] = Sprague Dawley, in vivo, IV 1 mg/kg

Molecule: 2-[2-Methyl-6-(propan-2-ylamino)pyridin-3-yl]-N-[(3S)-2-oxo-5-phenyl-1,3-dihydro-1,4-benzodiazepin-3-yl]pyrazolo[1,5-a]pyrimidine-3-carboxamide [Example 60]
- CC50 (Hep-G2 cells): > 25 µM
- EC50 (RSV A2; Hep-G2 cells): 41 nM

Molecule: 2-[2-Methyl-6-(propan-2-ylamino)pyridin-3-yl]-N-[(3S)-9-fluoro-2-oxo-5-phenyl-1,3-dihydro-1,4-benzodiazepin-3-yl]pyrazolo[1,5-a]pyrimidine-3-carboxamide [Example 61]
- CC50 (Hep-G2 cells): > 25 µM
- EC50 (RSV A2; Hep-G2 cells): 25 nM
- Liver Microsomal Stability t1/2 (in vitro [1]; dog): 23.5 min
- Liver Microsomal Stability t1/2 (in vitro [1]; human): 132 min
- Liver Microsomal Stability t1/2 (in vitro [1]; rat): 64.2 min

Molecule: 2-[4-Methyl-6-(propan-2-ylamino)pyridin-3-yl]-N-[(3S)-9-fluoro-2-oxo-5-phenyl-1,3-dihydro-1,4-benzodiazepin-3-yl]pyrazolo[1,5-a]pyrimidine-3-carboxamide [Example 62]
- CC50 (Hep-G2 cells): > 25 µM
- EC50 (RSV A2; Hep-G2 cells): 74 nM
- Liver Microsomal Stability t1/2 (in vitro [1]; dog): 49.7 min
- Liver Microsomal Stability t1/2 (in vitro [1]; human): > 140 min
- Liver Microsomal Stability t1/2 (in vitro [1]; rat): 71.2 min

Molecule: CN1CCc2ccc(-c3nn4cccnc4c3C(=O)N[C@H]3N=C(c4ccccc4)c4ccccc4NC3=O)cc21 [Example 11, 2-(1-Methyl-2,3-dihydroindol-6-yl)-N-[(3S)-2-oxo-5-phenyl-1,3-dihydro-1,4-benzodiazepin-3-yl]pyrazolo[1,5-a]pyrimidine-3-carboxamide]
- CC50 (Hep-G2 cells): > 25 µM
- EC50 (RSV A2; Hep-G2 cells): 89 nM

Molecule: Cc1nc2ccc(Cl)nn2c1C(=O)N[C@H]1N=C(c2ccccc2)c2ccccc2NC1=O [Example 21, 6-Chloro-2-methyl-N-[(3S)-2-oxo-5-phenyl-1,3-dihydro-1,4-benzodiazepin-3-yl]imidazo[1,2-b]pyridazine-3-carboxamide]
- CC50 (Cell cytotoxicity (CC50)): > 25 µM
- half-life at 3 μM (in vitro [2]; dog): 153 min
- half-life at 3 μM (in vitro [2]; human): 151 min
- half-life at 3 μM (in vitro [2]; rat): 89.8 min
- EC50 (RSV A2; [3]): 147 nM
- half-life at 1 μM (in vitro [1]; dog): 177 min
- half-life at 1 μM (in vitro [1]; human): 129 min
- half-life at 1 μM (in vitro [1]; rat): 62.2 min
- solubility thermodynamic (Thermodynamic solubility): 4.64 µM (≈ 2.06 µg/mL)

Molecule: CCc1ccc(-c2nn3cccnc3c2C(=O)N[C@H]2N=C(c3ccccc3)c3cccc(F)c3NC2=O)c(C)n1 [Example 57, 2-(6-Ethyl-2-methylpyridin-3-yl)-N-[(3S)-9-fluoro-2-oxo-5-phenyl-2,3-dihydro-1H-1,4-benzodiazepin-3-yl]pyrazolo[1,5-a]pyrimidine-3-carboxamide]
- CC50 (Cell cytotoxicity (CC50)): > 25 µM
- half-life at 3 μM (in vitro [2]; dog): 2600 min
- half-life at 3 μM (in vitro [2]; human): > 186 min
- half-life at 3 μM (in vitro [2]; rat): 47.1 min
- EC50 (RSV A2; [3]): 56 nM
- Vd (in vivo; [4]): 0.6 L/kg
- clearance (in vivo; [4]): 19.2 mL/min/kg
- Cmax (in vivo; Sprague Dawley, in vivo, IV 1 mg/kg / PO 10 mg/kg study): 912 ng/mL
- half-life (in vivo; Sprague Dawley, in vivo, IV 1 mg/kg, read-out: IV t1/2 (converted)): 84 min
- AUC(0-t) (in vivo; Sprague Dawley, in vivo, PO 10 mg/kg, read-out: PO AUClast): 3660 ng·h/mL
- half-life (in vivo; Sprague Dawley, in vivo, PO 10 mg/kg, read-out: PO t1/2 (converted)): 156 min
- C 8 h (in vivo; 8 h, IV 1 mg/kg / PO 10 mg/kg study): 142 ng/mL
- F (in vivo; IV 1 mg/kg, PO 10 mg/kg): 48%
- half-life at 1 μM (in vitro [1]; dog): 82.6 min
- half-life at 1 μM (in vitro [1]; human): 101 min
- half-life at 1 μM (in vitro [1]; rat): 42.9 min

Molecule: Cc1ccc2nc(-c3ccc(N4CCOCC4)nc3)c(C(=O)N[C@H]3N=C(c4ccccc4)c4cccc(F)c4NC3=O)n2n1 [Example 105, N-[(3S)-9-fluoro-2-oxo-5-phenyl-1,3-dihydro-1,4-benzodiazepin-3-yl]-6-methyl-2-(6-morpholin-4-ylpyridin-3-yl)imidazo[1,2-b]pyridazine-3-carboxamide]
- CC50 (Hep-G2 cells): > 25 µM
- EC50 (RSV A2; Hep-G2 cells): 38 nM

Molecule: O=C(N[C@H]1N=C(c2ccccc2)c2cccc(F)c2NC1=O)c1c(-c2ccc3[nH]ncc3c2)nc2cccnn12 [Example 126, N-[(3S)-9-fluoro-2-oxo-5-phenyl-1,3-dihydro-1,4-benzodiazepin-3-yl]-2-(1H-indazol-5-yl)imidazo[1,2-b]pyridazine-3-carboxamide]
- CC50 (Hep-G2 cells): > 25 µM
- EC50 (RSV A2; Hep-G2 cells): 56 nM
- Liver Microsomal Stability t1/2 (in vitro [1]; dog): 33.8 min
- Liver Microsomal Stability t1/2 (in vitro [1]; human): 312 min
- Liver Microsomal Stability t1/2 (in vitro [1]; rat): 413 min

Molecule: N-[(3S)-9-Fluoro-2-oxo-5-phenyl-1,3-dihydro-1,4-benzodiazepin-3-yl]-2-(2-fluorophenyl)-7-methylpyrazolo[1,5-a]pyrimidine-3-carboxamide [Example 38]
- CC50 (Hep-G2 cells): > 25 µM
- EC50 (RSV A2; Hep-G2 cells): 27 nM
- Liver Microsomal Stability t1/2 (in vitro [1]; dog): 165 min
- Liver Microsomal Stability t1/2 (in vitro [1]; human): > 140 min
- Liver Microsomal Stability t1/2 (in vitro [1]; rat): 119 min

Molecule: N-[(3S)-9-Fluoro-2-oxo-5-phenyl-l,3-dihydro-1,4-benzodiazepin-3-yl]-2-phenylpyrazolo[1,5-a]pyrimidine-3-carboxamide [Example 17]
- CC50 (Hep-G2 cells): > 25 µM
- EC50 (RSV A2; Hep-G2 cells): 90 nM
